Four compounds from patent publication US9067926B2, “Fluoromethyl-5,6-dihydro-4H-[1,3]OXAZINES” (F. Hoffmann-La Roche AG, priority 2012, dated 2015) can be followed below.

In one series the target is T1, P-gp (human MDR1) (Homo sapiens, UniProt P08183).
T1 construct: host or cells: LLC-PK1 (porcine kidney epithelial cells)
Briefly: P-gp (P-Glycoprotein) bidirectional transcellular transport assay, LLC-PK1 and L-MDR1 cells. It counts as in vitro ADME. Particulars: LLC-PK1 cells expressing human MDR1, PappBA/PappAB. The protocol: P-gp (P-Glycoprotein) Assay
Cell Lines and Vesicles Used for Transport Experiments
The MDR1 (human multidrug resistance protein 1) transfected cell lines were obtained from Dr. A. Schinkel, The Netherlands Cancer Institute (Amsterdam, The Netherlands). All cell lines were cultured on permeable inserts (Costar, 0.33 cm^2 area, pore size 3.0 μm, low density) at 4.5·10^5 cells/cm^2. Transport measurements were performed at day 4 after seeding. Tightness of the cell monolayer was controlled via the permeability of the extracellular marker lucifer yellow (10 μM).
In Vitro Transport Experiments
Bidirectional transcellular transport using LLC-PK1 and L-MDR1 LLC-PK1 cells exogenously expressing the human MDR1)
The method used for transport experiments were performed on a TECAN automated liquid handling system. Briefly, medium was removed from all compartments and the medium of receiver side was replaced with culture medium. The trans-cellular transport measurements were initiated by adding the substrate together with extracellular marker lucifer yellow to the donor side. Inhibitors were added to both sides (1 μM elacridar). […] The plates were incubated at 37° C. and 5% CO2 in a Liconic incubator. Samples were taken from the donor and the opposite (acceptor) side after 2 hours incubation. Concentrations of substrate in both compartments were determined by scintillation counting (digoxin) or by LC-MS/MS. […] In each experiment 3 different inserts were used for each condition and a mean was calculated.
Bidirectional transcellular transport using LLC-PK1 and L-MDR1 cells
For the transcellular transport, the following equation was used for data evaluation: […]
Where Papp, A, C0, and dQ/dt represent the apparent permeability, the filter surface area, the initial concentration, and the amount transported per time period, respectively.
Transport efflux ratios (ER) were calculated as follows: […]
Where PappBA is the permeability value in the basolateral-to-apical direction, and PappAB the permeability value in the apical-to-basolateral direction. Papp were not corrected for flux of the extracellular marker lucifer yellow, which was used to assess the quality of the cell mono layers.

The test system of a further series is Aβ40 in brain. Briefly: In vivo inhibition of Aβ40 in brain of wild-type mice. Particulars: Mus musculus, po; 10 mg/kg p.o., brain Aβ40 after 4 h, female C57Bl/6J mice; read-out: in vivo effect, Percentage of control @ 10 mg/kg p.o. The method, then: In Vivo Experiments. […] The test compound was dissolved in 5% EtOH, 10% Solutol and was applied per os at 10 ml/kg. After 4 h the animals were sacrificed and brain and plasma were collected. The brain was cut into halves and immediately frozen on dry ice. Brain was used for measurement of Aβ40 and plasma was used for determination of compound exposure. […] Brain tissue was homogenized in 2% DEA buffer in a Roche […] (20'', 4000 rpm) and subsequently centrifuged for 1 h at 100'000 g. DEA was reduced to 0.2% in 50 mM NaCl and one half of the DEA lysate was passed over an Oasis Solid Phase extraction plate (Waters; Cat.Nr. 186000679) which had been activated with MeOH and equilibrated in dH2O (1 ml each). After washes in 10% and 30% MeOH (1 ml each) the AP-peptides were eluted in 0.8 ml 2% NH4OH in 90% MeOH. […] Aβ40 was determined by an AlphaLISA assay (Perkin Elmer). In a white 96well half-area microplate (Perkin Elmer Cat.Nr. 6005561), 20 μl of the reconstituted sample were mixed with 5 μl biotinylated BAP-24 (specific for C-terminus of Aβ40 (Brockhaus, M.; Grunberg, J.; Rohrig, S.; Loetscher, H.; Wittenburg, N.; Baumeister, R.; Jacobsen, […]. Caspase-mediated cleavage is not required for the activity of presenilins in amyloidogenesis and NOTCH signaling. […] The mix was incubated for 1 h at RT in the dark. Then 20 μl Streptavin-coated Donor Beads (Perkin Elmer Cat. Nr. 6760002, final dilution 1:125) were added and this final mix was incubated in the dark for another 30 min at r.t. before RFU was measured in an AlphaScreen Reader(Perkin Elmer Envision 2104).

The target in series [1] is T2, cathepsin D (from human liver) (Homo sapiens, UniProt P07339).
T2 construct: cathepsin D (from human liver, Calbiochem) diluted in assay buffer; purchased Calbiochem; host or cells: human liver
Nature of the series: Cathepsin D fluorescent substrate kinetic assay. It counts as biochemical. As to conditions: pH 5.5. From the text: Cathepsin D and Cathepsin E Fluorescent Substrate Kinetic Assays
The MR121 fluorescence assays described below are based on the fact that MR121 forms a non-fluorescent ground state complex with tryptophan. In solution this formation occurs at millimolar concentrations of tryptophan. The mechanism can be used to design a generic biochemical assay for proteases. […] In absence of protease activity, the substrates remain intact and the MR121 fluorescence is reduced by the high local Trp-concentration. If the substrates are cleaved by the enzymes the MR121 fluorescence is recovered.
The fluorescent substrate cathepsin D and cathepsin E kinetic assays were performed at room temperature in 384-well microtiter plates (black with clear flat bottom, non binding surface plates from Corning) in a final volume of 51 μl. The test compounds were serially diluted in DMSO (15 concentrations, 1/3 dilution steps) and 1 μl of diluted compounds were mixed for 10 min with 40 μl of cathepsin D (from human liver, Calbiochem) diluted in assay buffer (100 mM sodium acetate, 0.05% BSA, pH 5.5; final concentration: 200 nM) or with 40 μl of recombinant human cathepsin E (R&D Systems) diluted in assay buffer (100 mM sodium acetate, 0.05% BSA, pH 4.5; final concentration: 0.01 nM). […] The slope in the linear range of the kinetic was calculated and the IC50 of the test compounds were determined using a four parameter equation for curve fitting.

For another series, the target named is T3, CYP2D6 (Homo sapiens, UniProt P10635).
T3 construct: 0.2 mg/ml pooled human liver microsomes; from tissue; host or cells: pooled human liver microsomes
Nature of the series: CYP inhibition assay, CYP2D6. It counts as in vitro ADME. Particulars: pooled human liver microsomes, dextromethorphan substrate; read-out: CYP IC50 2D6. The method, then: Inhibition of cytochromes P450 (CYPs) 2C9, 2D6 and 3A4 was assessed using human liver microsomes and CYP-selective substrate metabolism reactions. […] Quenched incubates were stored at −20° C. for at least 1 hour before centrifugation (20,000×g, 20 minutes). Supernatants were removed and diluted 1:1 with water prior to analysis using a RapidFire sample injector system and API4000 mass spectrometer. Peak areas for substrate, metabolite and stable-labelled metabolite standard were determined using MS/MS. The peak area ratios between the metabolite generated by the enzymatic reaction and the internal standard were used in subsequent calculations. The percentage of (DMSO) control activity was calculated for each incubate and IC50 values estimated by non-linear regression. Sulfaphenazole, quinidine or ketoconazole were tested in each CYP2C9, CYP2D6 or CYP3A4 inhibition experiment, respectively, to ensure assay sensitivity and reproducibility.
A general note: Microsomes from liver hold many membrane-bound enzymes, among them those of drug oxidation.

T1 sequence (P08183 whole entry): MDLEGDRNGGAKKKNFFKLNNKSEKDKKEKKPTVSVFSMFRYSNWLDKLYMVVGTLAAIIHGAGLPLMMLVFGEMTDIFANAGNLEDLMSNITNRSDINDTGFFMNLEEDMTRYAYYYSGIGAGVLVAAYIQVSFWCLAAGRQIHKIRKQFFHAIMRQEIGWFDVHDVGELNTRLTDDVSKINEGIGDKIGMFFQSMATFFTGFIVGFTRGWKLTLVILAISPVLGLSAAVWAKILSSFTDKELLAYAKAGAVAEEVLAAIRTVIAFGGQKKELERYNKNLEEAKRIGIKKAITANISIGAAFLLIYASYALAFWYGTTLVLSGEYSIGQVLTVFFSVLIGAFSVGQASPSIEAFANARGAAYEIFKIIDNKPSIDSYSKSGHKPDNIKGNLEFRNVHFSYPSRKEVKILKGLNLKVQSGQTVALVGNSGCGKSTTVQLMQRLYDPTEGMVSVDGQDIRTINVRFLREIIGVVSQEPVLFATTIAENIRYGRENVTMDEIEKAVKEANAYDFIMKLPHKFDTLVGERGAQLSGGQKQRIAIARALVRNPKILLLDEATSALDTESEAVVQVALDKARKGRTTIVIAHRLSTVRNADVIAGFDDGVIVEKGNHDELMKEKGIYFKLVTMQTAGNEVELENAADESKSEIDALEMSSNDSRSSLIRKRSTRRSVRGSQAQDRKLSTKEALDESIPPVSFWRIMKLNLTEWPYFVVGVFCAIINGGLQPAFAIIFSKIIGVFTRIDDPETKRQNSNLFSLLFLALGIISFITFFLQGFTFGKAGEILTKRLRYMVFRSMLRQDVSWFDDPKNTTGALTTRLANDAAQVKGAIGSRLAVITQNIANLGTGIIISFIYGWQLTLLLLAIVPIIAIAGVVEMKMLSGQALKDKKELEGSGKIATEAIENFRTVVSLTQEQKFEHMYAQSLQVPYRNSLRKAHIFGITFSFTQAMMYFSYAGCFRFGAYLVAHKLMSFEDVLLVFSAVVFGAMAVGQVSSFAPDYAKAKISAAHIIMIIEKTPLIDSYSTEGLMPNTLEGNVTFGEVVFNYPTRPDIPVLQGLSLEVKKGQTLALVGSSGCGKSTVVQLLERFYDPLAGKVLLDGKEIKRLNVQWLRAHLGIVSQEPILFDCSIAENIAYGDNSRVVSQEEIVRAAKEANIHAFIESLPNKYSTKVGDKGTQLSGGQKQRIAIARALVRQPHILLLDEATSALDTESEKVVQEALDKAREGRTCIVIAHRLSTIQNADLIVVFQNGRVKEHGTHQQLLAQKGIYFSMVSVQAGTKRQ
T2 sequence (P07339 65-412): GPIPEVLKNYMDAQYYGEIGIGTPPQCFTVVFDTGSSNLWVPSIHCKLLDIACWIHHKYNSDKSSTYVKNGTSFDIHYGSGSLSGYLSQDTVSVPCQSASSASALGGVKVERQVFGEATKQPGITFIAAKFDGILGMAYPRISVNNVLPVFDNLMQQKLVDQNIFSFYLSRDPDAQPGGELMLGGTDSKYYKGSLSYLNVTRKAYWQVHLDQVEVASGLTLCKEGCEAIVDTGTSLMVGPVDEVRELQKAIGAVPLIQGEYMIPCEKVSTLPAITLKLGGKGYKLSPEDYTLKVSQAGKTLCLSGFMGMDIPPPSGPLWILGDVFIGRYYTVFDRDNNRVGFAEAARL
T3 sequence (P10635 whole entry): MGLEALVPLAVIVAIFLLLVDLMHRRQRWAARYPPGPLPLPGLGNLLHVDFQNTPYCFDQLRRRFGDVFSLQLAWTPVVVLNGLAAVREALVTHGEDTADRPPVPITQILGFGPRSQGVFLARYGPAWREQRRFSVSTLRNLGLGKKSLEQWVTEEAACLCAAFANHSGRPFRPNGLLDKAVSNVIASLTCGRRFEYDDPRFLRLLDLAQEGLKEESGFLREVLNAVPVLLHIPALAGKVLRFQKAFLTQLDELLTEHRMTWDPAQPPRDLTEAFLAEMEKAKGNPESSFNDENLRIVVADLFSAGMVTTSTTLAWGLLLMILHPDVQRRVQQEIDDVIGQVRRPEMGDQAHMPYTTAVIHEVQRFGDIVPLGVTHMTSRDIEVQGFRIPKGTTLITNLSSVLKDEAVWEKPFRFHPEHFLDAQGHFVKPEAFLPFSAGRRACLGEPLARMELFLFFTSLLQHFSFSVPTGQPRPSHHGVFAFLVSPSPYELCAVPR

For `CC#CCOc1cnc(C(=O)Nc2ccc(F)c([C@]3(C)C[C@@H](C(F)(F)F)OC(N)=N3)c2)cn1` [Example 22, N-(3-((4S,6S)-2-Amino-4-methyl-6-(trifluoromethyl)-5,6-dihydro-4H-1,3-oxazin-4-yl)-4-fluorophenyl)-5-(but-2-ynyloxy)pyrazine-2-carboxamide], the efflux ratio (in general, the permeability from basolateral to apical divided by that in the opposite direction, in the common usage) at 2 h on P-gp (human MDR1) worked out at 2.63. The response vs control in vivo at 10 mg/kg in the series with Aβ40 in brain came to 83%. Moreover, the IC50 (in general, the midpoint of a concentration-inhibition curve) in series [1] stood at 179 µM; on CYP2D6, 13 µM.
In the same order, the values of `NC1=N[C@](CF)(c2cc(NC(=O)c3ccc(OCF)cn3)ccc2F)C[C@@H](C(F)(F)F)O1` [Example 35, N-(3-((4S,6S)-2-Amino-4-(fluoromethyl)-6-(trifluoromethyl)-5,6-dihydro-4H-1,3-oxazin-4-yl)-4-fluorophenyl)-5-(fluoromethoxy)picolinamide] are 1.5, 74%, over 200 µM and 5.2 µM.
As for `C[C@@]1(c2cc(NC(=O)c3ccc(Cl)cn3)ccc2F)C[C@@H](C(F)(F)F)OC(N)=N1` [Example 2, N-(3-((4S,6S)-2-amino-4-methyl-6-(trifluoromethyl)-5,6-dihydro-4H-1,3-oxazin-4-yl)-4-fluorophenyl)-5-chloropicolinamide], on P-gp (human MDR1), the efflux ratio at 2 h was 1.82. The response vs control in vivo at 10 mg/kg in the series on Aβ40 in brain is 93%. The figures for the IC50 (in series [1]; on CYP2D6) were over 200 µM and 3.9 µM, respectively.
Turning to `C[C@@]1(c2cc(NC(=O)c3ccc(OCF)cn3)ccc2F)C[C@@H](C(F)(F)F)OC(N)=N1` [Example 11, N-(3-((4S,6S)-2-Amino-4-methyl-6-(trifluoromethyl)-5,6-dihydro-4H-1,3-oxazin-4-yl)-4-fluorophenyl)-5-(fluoromethoxy)picolinamide], the efflux ratio at 2 h on P-gp (human MDR1) was found to be 2.3. Also, the response vs control in vivo at 10 mg/kg in the series on Aβ40 in brain came out at 87%. Moreover, the IC50 in series [1] was over 200 µM; on CYP2D6, 1.6 µM.
